We go through one substance from patent US20220257710A1, “ANTI-INFECTION EFFECTS OF HNRNPA2B1 AND USE THEREOF” (INSTITUTE OF BASIC MEDICAL SCIENCES, CHINESE ACADEMY OF …, priority 2019, published 2022).

In this experiment the test system is HSV-1 DNA. The experiment in a line: Immunoprecipitation of nuclear protein with anti-hnRNPA2B1 antibody and PCR detection of HSV-1 DNA. The experiment is classed as binding, HSV-1 (strain F). The following applies: mouse primary peritoneal macrophages, 2 hours after HSV-1 infection, PCR. The procedure:
Obtaining the primary peritoneal macrophages of mice: C57BL/6 mice (6-8 weeks old, female, Shanghai Bikai Experimental Animal Co., Ltd.) were intraperitoneally injected with 2 ml of 3% mercaptoacetate (Sigma Aldrich) solution once. Three days later, the mice were sacrificed by cervical dislocation, and the abdominal cavity was washed with serum-free medium, sucked out and centrifuged to obtain cells.
The primary peritoneal macrophage cells were cultured in DMEM medium. After HSV-1 (strain F, ATCC) infection for 2 hours, nuclear protein was isolated and immunoprecipitated by anti-hnRNPA2B1 antibody (Santa Cruz) or control antibody (IgG, Santa Cruz). HSV-1 DNA was detected by PCR.

On to “hnRNPA2B1: heterogeneous nuclear ribonucleoprotein A2B1; endogenous nuclear protein of mouse macrophages precipitated by anti-hnRNPA2B1 antibody”, for which the “binding of hnRNPA2B1 to HSV-1 DNA” value was “bound”.
